Experiments:
Experiment in all cases: relative viability (nuclei count vs DMSO), 5 days (fraction); higher = more cells survive
NCI-H1299 = tested on: NCI-H1299
In short: (§1)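 For relative viability, nuclei counts in treated wells were divided by those in vehicle wells. Lung cancer cell lines had been pin-tool dosed in 1536-well plates the day after seeding and cultured for 5 days, then fixed and stained in one step (final 0.05% Triton X-100, 1% formaldehyde, 1 ug/ml Hoechst) and imaged at 4×. Doses were one drug alone or a fixed anchor-drug dose plus five library-drug doses (not always all listed) in √10 steps, and values are duplicate-plate medians.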

A549 = tested on: A549
In short: as §1

NCI-H1563 = tested on: NCI-H1563
In short: as §1

EBC-1 = tested on: EBC-1
In short: as §1

NCI-H2087 = tested on: NCI-H2087
In short: as §1

NCI-H322M = tested on: NCI-H322M
In short: as §1

HCC-78 = tested on: HCC-78
In short: as §1

Calu-6 = tested on: Calu-6
In short: as §1

NCI-H1703 = tested on: NCI-H1703
In short: as §1

HCC-44 = tested on: HCC-44
In short: as §1

IA-LM = tested on: IA-LM
In short: as §1

CCNC(=O)c1noc(-c2cc(C(C)C)c(O)cc2O)c1-c1ccc(CN2CCOCC2)cc1 [Luminespib] + Cc1nc(NC(=O)N2CCC[C@H]2C(N)=O)sc1-c1ccnc(C(C)(C)C(F)(F)F)c1 [Alpelisib] (partner 2 µM)
relative viability (NCI-H1299; first compound 0.002 µM): 1 | relative viability (NCI-H1299; first compound 0.006325 µM): 1 | relative viability (NCI-H1299; first compound 0.02 µM): 1.15 | relative viability (NCI-H1299; first compound 0.06325 µM): 0.961 | relative viability (NCI-H1299; first compound 0.2 µM): 0.483 | relative viability (A549; first compound 0.002 µM): 0.804 | relative viability (A549; first compound 0.006325 µM): 0.71 | relative viability (A549; first compound 0.02 µM): 0.255 | relative viability (A549; first compound 0.06325 µM): 0.0392 | relative viability (A549; first compound 0.2 µM): 0.036 | relative viability (NCI-H1563; first compound 0.002 µM): 0.877 | relative viability (NCI-H1563; first compound 0.006325 µM): 0.942 | relative viability (NCI-H1563; first compound 0.02 µM): 0.95 | relative viability (NCI-H1563; first compound 0.06325 µM): 0.495 | relative viability (NCI-H1563; first compound 0.2 µM): 0.537 | relative viability (EBC-1; first compound 0.002 µM): 0.825 | relative viability (EBC-1; first compound 0.006325 µM): 0.741 | relative viability (EBC-1; first compound 0.02 µM): 0.228 | relative viability (EBC-1; first compound 0.06325 µM): 0.146 | relative viability (EBC-1; first compound 0.2 µM): 0.131 | relative viability (NCI-H2087; first compound 0.002 µM): 1.2 | relative viability (NCI-H2087; first compound 0.006325 µM): 0.907 | relative viability (NCI-H2087; first compound 0.02 µM): 1.3 | relative viability (NCI-H2087; first compound 0.06325 µM): 0.193 | relative viability (NCI-H2087; first compound 0.2 µM): 0.184 | relative viability (NCI-H322M; first compound 0.002 µM): 0.774 | relative viability (NCI-H322M; first compound 0.006325 µM): 0.711 | relative viability (NCI-H322M; first compound 0.02 µM): 0.588 | relative viability (NCI-H322M; first compound 0.06325 µM): 0.751 | relative viability (NCI-H322M; first compound 0.2 µM): 0.807 | relative viability (HCC-78; first compound 0.002 µM): 0.309 | relative viability (HCC-78; first compound 0.06325 µM): 0.585 | relative viability (HCC-78; first compound 0.2 µM): 0.216 | relative viability (Calu-6; first compound 0.002 µM): 0.975 | relative viability (Calu-6; first compound 0.006325 µM): 0.949 | relative viability (Calu-6; first compound 0.02 µM): 0.783 | relative viability (Calu-6; first compound 0.06325 µM): 0.131 | relative viability (Calu-6; first compound 0.2 µM): 0.12 | relative viability (NCI-H1703; first compound 0.002 µM): 0.378 | relative viability (NCI-H1703; first compound 0.006325 µM): 0.367 | relative viability (NCI-H1703; first compound 0.02 µM): 0.186 | relative viability (NCI-H1703; first compound 0.06325 µM): 0.133 | relative viability (NCI-H1703; first compound 0.2 µM): 0.116 | relative viability (HCC-44; first compound 0.002 µM): 0.82 | relative viability (HCC-44; first compound 0.006325 µM): 0.886 | relative viability (HCC-44; first compound 0.02 µM): 0.851 | relative viability (HCC-44; first compound 0.06325 µM): 0.152 | relative viability (HCC-44; first compound 0.2 µM): 0.154 | relative viability (IA-LM; first compound 0.002 µM): 0.752 | relative viability (IA-LM; first compound 0.006325 µM): 0.788 | relative viability (IA-LM; first compound 0.02 µM): 0.268 | relative viability (IA-LM; first compound 0.06325 µM): 0.0487 | relative viability (IA-LM; first compound 0.2 µM): 0.05

Cc1csc(=NC2CCCCC2)n1/N=C/c1ccc(O)c(O)c1O [MIM1] + CS(=O)(=O)CCNCc1ccc(-c2ccc3ncnc(Nc4ccc(OCc5cccc(F)c5)c(Cl)c4)c3c2)o1 [Lapatinib] (partner 2 µM)
relative viability (NCI-H1299; first compound 0.2 µM): 0.978 | relative viability (NCI-H1299; first compound 0.6325 µM): 0.954 | relative viability (NCI-H1299; first compound 2 µM): 1 | relative viability (NCI-H1299; first compound 6.325 µM): 0.924 | relative viability (NCI-H1299; first compound 20 µM): 0.948 | relative viability (A549; first compound 0.2 µM): 0.997 | relative viability (A549; first compound 0.6325 µM): 0.941 | relative viability (A549; first compound 2 µM): 1.03 | relative viability (A549; first compound 6.325 µM): 0.595 | relative viability (A549; first compound 20 µM): 0.222 | relative viability (NCI-H1563; first compound 0.2 µM): 0.903 | relative viability (NCI-H1563; first compound 0.6325 µM): 1.04 | relative viability (NCI-H1563; first compound 2 µM): 0.853 | relative viability (NCI-H1563; first compound 6.325 µM): 0.825 | relative viability (NCI-H1563; first compound 20 µM): 0.462 | relative viability (EBC-1; first compound 0.2 µM): 0.199 | relative viability (EBC-1; first compound 0.6325 µM): 0.279 | relative viability (EBC-1; first compound 2 µM): 0.212 | relative viability (EBC-1; first compound 6.325 µM): 0.209 | relative viability (EBC-1; first compound 20 µM): 0.205 | relative viability (NCI-H2087; first compound 0.2 µM): 1.04 | relative viability (NCI-H2087; first compound 0.6325 µM): 0.85 | relative viability (NCI-H2087; first compound 2 µM): 0.998 | relative viability (NCI-H2087; first compound 6.325 µM): 0.602 | relative viability (NCI-H2087; first compound 20 µM): 0.511 | relative viability (NCI-H322M; first compound 0.2 µM): 0.653 | relative viability (NCI-H322M; first compound 0.6325 µM): 0.531 | relative viability (NCI-H322M; first compound 2 µM): 0.532 | relative viability (NCI-H322M; first compound 6.325 µM): 0.577 | relative viability (NCI-H322M; first compound 20 µM): 0.801 | relative viability (HCC-78; first compound 0.2 µM): 0.834 | relative viability (HCC-78; first compound 0.6325 µM): 0.964 | relative viability (HCC-78; first compound 2 µM): 0.637 | relative viability (HCC-78; first compound 6.325 µM): 0.492 | relative viability (HCC-78; first compound 20 µM): 0.336 | relative viability (Calu-6; first compound 0.2 µM): 1.08 | relative viability (Calu-6; first compound 0.6325 µM): 0.985 | relative viability (Calu-6; first compound 2 µM): 1.06 | relative viability (Calu-6; first compound 6.325 µM): 0.509 | relative viability (Calu-6; first compound 20 µM): 0.289 | relative viability (NCI-H1703; first compound 0.2 µM): 1.02 | relative viability (NCI-H1703; first compound 0.6325 µM): 1.23 | relative viability (NCI-H1703; first compound 2 µM): 0.906 | relative viability (NCI-H1703; first compound 6.325 µM): 0.166 | relative viability (NCI-H1703; first compound 20 µM): 0.202 | relative viability (HCC-44; first compound 0.2 µM): 1.07 | relative viability (HCC-44; first compound 0.6325 µM): 0.969 | relative viability (HCC-44; first compound 2 µM): 0.798 | relative viability (HCC-44; first compound 6.325 µM): 0.346 | relative viability (HCC-44; first compound 20 µM): 0.128 | relative viability (IA-LM; first compound 0.2 µM): 0.66 | relative viability (IA-LM; first compound 0.6325 µM): 0.869 | relative viability (IA-LM; first compound 2 µM): 0.716 | relative viability (IA-LM; first compound 6.325 µM): 0.375 | relative viability (IA-LM; first compound 20 µM): 0.151

From the supplement of paper PMC10307832
